Test results as given in PubChem BioAssay (NCI).
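All cell lines were grown in 96-well plates and treated with compound for 48 hours. Here, GI50 denotes the concentration required for 50% inhibition of growth. TGI: total growth inhibition.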

What was measured:
Test in all cases: DTP human tumour cell line panel, 48 h
UACC-62 melanoma = test system: UACC-62 melanoma
UO-31 renal = test system: UO-31 renal
OVCAR-4 ovarian = test system: OVCAR-4 ovarian
BT-549 breast = test system: BT-549 breast
PC-3 prostate = test system: PC-3 prostate
NCI-H23 lung = test system: NCI-H23 lung
NCI-H226 lung = test system: NCI-H226 lung
MOLT-4 leukemia = test system: MOLT-4 leukemia
HOP-92 NSCLC = test system: HOP-92 NSCLC
NCI/ADR-RES ovarian = test system: NCI/ADR-RES ovarian

| Structure (SMILES) | GI50 (UACC-62 melanoma) [µM] | TGI (UACC-62 melanoma) [µM] | GI50 (UO-31 renal) [µM] | TGI (UO-31 renal) [µM] | GI50 (OVCAR-4 ovarian) [µM] | TGI (OVCAR-4 ovarian) [µM] | GI50 (BT-549 breast) [µM] | TGI (BT-549 breast) [µM] | GI50 (PC-3 prostate) [µM] | TGI (PC-3 prostate) [µM] | GI50 (NCI-H23 lung) [µM] | TGI (NCI-H23 lung) [µM] | GI50 (NCI-H226 lung) [µM] | TGI (NCI-H226 lung) [µM] | GI50 (MOLT-4 leukemia) [µM] | TGI (MOLT-4 leukemia) [µM] | GI50 (HOP-92 NSCLC) [µM] | TGI (HOP-92 NSCLC) [µM] | GI50 (NCI/ADR-RES ovarian) [µM] | TGI (NCI/ADR-RES ovarian) [µM] |
| --- | --- | --- | --- | --- | --- | --- | --- | --- | --- | --- | --- | --- | --- | --- | --- | --- | --- | --- | --- | --- |
| O=C(NCCCNC(=O)OCc1ccc2c(Br)cc(Br)c(O)c2n1)OCc1ccc2c(Br)cc(Br)c(O)c2n1 | > 100 | > 100 | > 100 | > 100 | > 100 | > 100 | > 100 | > 100 | > 100 | > 100 | > 100 | > 100 | > 100 | > 100 | > 100 | > 100 | > 100 | > 100 | > 100 | > 100 |
| COc1cc(-c2nn(C(=O)NS(=O)(=O)c3ccc(C)cc3)cc2-c2ccncc2)ccc1Cl | 2.28 | 10.2 | 3.74 | 16 | 3.26 | 27.3 | 2.66 | 10.6 | 16.1 | > 100 | 5.27 | 28.9 | 2.88 | 14.8 | 10.6 | 54.1 | 10.3 | 77.8 | 3.93 | 80.6 |
| COc1ccc(C2C(c3ccccc3)C(=O)N2c2cc(OC)c(OC)c(OC)c2)cc1I (stereo not given) | 0.458 | > 100 | 0.693 | > 100 | 0.709 | > 100 | 0.419 | 5.36 | 0.488 | > 100 | 0.623 | > 100 | 15.6 | > 100 | 0.337 | > 100 | 0.961 | > 100 | 0.319 | > 100 |
| COc1ccc(/C(Cl)=C(\C=O)c2ccc(OC)c(OC)c2)cc1OC | – | > 100 | – | > 100 | – | > 100 | – | > 100 | – | > 100 | – | > 100 | – | 99.9 | – | > 100 | – | > 100 | – | > 100 |
| O=C1C(Cl)=C(Nc2cccc(C(F)(F)F)c2)C(=O)N1Cc1ccccc1Cl | 3.18 | 13.7 | 5.01 | > 43.6 | 6.58 | 26.5 | 1.95 | 18.1 | 4.72 | 18.2 | 5.45 | 23.2 | 0.0858 | 3.01 | 2.56 | 8.53 | 8.34 | 28.4 | 10.1 | 26.8 |
| C[C@@]1(c2ncncc2F)NC(=O)c2cc(-c3cn[nH]c3)ccc21 | 18.8 | 70.6 | 17.2 | 72.8 | 38.5 | > 100 | 11.8 | 49.3 | 27.2 | > 100 | 18.7 | > 100 | 20.1 | > 100 | 26.5 | > 100 | 22.6 | 88.5 | 37.9 | > 100 |
| CCOC(=O)N1C/C(=C/c2ccc(OC)cc2)C(=O)/C(=C/c2ccc(OC)cc2)C1 | 1.92 | 5.4 | 1.9 | 5.19 | 2.77 | > 31 | 2.01 | 4.47 | 2.53 | 8.61 | 3.26 | 20.2 | 3.29 | 18.9 | 3.99 | > 100 | 4.97 | > 56.3 | 3.35 | > 100 |
| COc1ccc2c(c1OC)-c1c(c3ccc([N+](=O)[O-])cc3c(=O)n1CCCN=[N+]=[N-])C2=O | 4.59 | > 100 | 3.5 | > 100 | > 100 | > 100 | > 100 | > 100 | 22 | > 100 | 17.5 | > 100 | 22.8 | 99.3 | 3.12 | > 100 | 20.3 | > 100 | 12.2 | > 100 |
| Cc1ccccc1-n1c(/C=C\c2ccccn2)nc2ccccc2c1=O | 14.2 | 45 | 7.51 | > 100 | 18.1 | > 100 | 7.44 | 22.3 | 6.41 | 65.4 | 6.06 | 57.4 | 28.8 | > 100 | 6.16 | 27.7 | 3.32 | 67.1 | 7.16 | 79.5 |
| COc1ccccc1CNC(=O)C1c2ccccc2C(=O)N(CC(C)C)C1c1cccs1 (stereo not given) | 14.7 | 38.6 | 17.7 | 72.5 | 26.2 | > 100 | 23 | 64.4 | 15.9 | > 100 | 25.8 | > 100 | 20.4 | 72.4 | 14.5 | 73.9 | 8.15 | 44 | 20.6 | > 100 |
| COC(=O)c1c2c(c(C)[n+]([O-])c1C)C(=O)C(NCc1cccc(OC)c1)=CC2=O | 1.7 | 3.48 | 2.27 | 9.25 | 1.27 | 2.55 | 3.49 | 13.4 | 2.63 | 14.8 | 1.84 | 4.41 | 3.32 | 13 | 2.39 | 6.67 | 2.75 | 6.57 | 2.36 | 6.74 |
| CCCCCCCCCCCCOC1C(C(COC2OC(C(O)CN3CCCCC3)C3OC(C)(C)OC23)NC(=O)Nc2ccccc2)OC2OC(C)(C)OC21 (stereo not given) | 15.9 | 31 | 10.3 | 28.2 | 9.48 | 27.3 | 14.9 | 29.5 | 10.7 | 24.9 | 17.9 | 37.1 | 17 | 38.1 | 1.29 | 5.54 | 6.86 | 19.7 | 15.3 | 33.3 |
| O=C(O)c1ccc(S(=O)(=O)N=Nc2c(O)[nH]c3ccccc23)cc1 | – | > 100 | – | > 100 | – | > 100 | – | > 100 | – | > 100 | – | > 100 | – | > 100 | – | > 100 | – | > 100 | – | > 100 |
| Cc1ccc(C2SCc3nc4ccc(C(=O)c5ccccc5)cc4n32)cc1 (stereo not given) | 5.29 | 19.3 | 17 | 54.9 | 34 | > 100 | 4.8 | 18.4 | 10.5 | > 67.5 | 14.4 | > 62 | 15.3 | 62.3 | 14.8 | > 100 | 11.7 | 38.8 | 2.37 | 8.38 |
| O=C(O)c1ccc(-c2ccc(C(=O)O)cc2I)c(I)c1 | > 100 | > 100 | > 100 | > 100 | > 100 | > 100 | > 100 | > 100 | > 100 | > 100 | > 100 | > 100 | > 100 | > 100 | > 100 | > 100 | > 100 | > 100 | > 100 | > 100 |
| Cc1c2ncccc2nc2[nH]c3ccc(OCCN(C)C)cc3c12 | 14.3 | 39.3 | 1.84 | 11.5 | 1.84 | 8.75 | 7.46 | 29.7 | 1.86 | 10.9 | 2.54 | 21 | 5.05 | 21.5 | 0.6 | 12.5 | 1.99 | 9.59 | 1.1 | 17.4 |
| COc1ccc(NC(=O)c2sc3nc(C)c(C(O)c4ccc(OC)cc4)cc3c2N)cc1 (stereo not given) | 0.621 | > 50 | 2.85 | > 50 | 5.12 | > 50 | 1.81 | > 50 | 1.89 | > 50 | 2.06 | > 50 | 3.54 | > 50 | 2.17 | > 50 | 5.62 | > 50 | 1.28 | 4.41 |
| BrC(Br)(Br)c1cnc2ccccc2n1 | 2.02 | 6.6 | 0.793 | 2.39 | 1.46 | 3.98 | 2.4 | 6.84 | 2.44 | 9.89 | 3.6 | 17.1 | 3.91 | 8.38 | 2.46 | 8.54 | 1.5 | 3.14 | 2.3 | 7.36 |
| CCn1c(-c2nonc2N)nc2c(C#CC(C)(C)O)nc(O[C@@H](CN)c3ccccc3)cc21 | 0.361 | 1.02 | 3.52 | 7.37 | 0.447 | 4.63 | 0.356 | 1.9 | 0.0858 | 9.94 | 0.344 | 2.97 | 0.624 | 1.57 | 0.11 | 1.97 | 0.0727 | 1.12 | 6.38 | 25 |
